pKd: −log10 of the molar value.
Key:
[1] = target: T1, human serum albumin (HSA) (Homo sapiens, UniProt P02768); assay: Binding affinity to human serum albumin (absorbance peak shift or ultrafiltration method)
T1 construct: purchased Sigma Aldrich A9511
Procedure: An analysis of the binding affinity of the compounds of the invention to human albumin was carried out and the results compared with ICG and […] as a reference. Binding affinity to human serum albumin (HSA; Sigma Aldrich, A9511) was measured using two methods, according to the level of binding affinity of the compounds. The first method, optimal for compounds which strongly interact with HSA, is based on the analysis of the absorbance spectrum peak shift after the incubation of the dye in solutions containing HSA. […] The measure was performed at the maximum absorbance wavelength of the shifted peak. The second method, optimal for compound with low affinity for HSA, is based on measuring the variation of the absorbance of solutions containing the dye and various concentrations of HSA after ultrafiltration. […] In the first method, ΔA/b corresponds to the absorbance measured for each sample, whereas in the second method ΔA/b is obtained subtracting the absorbance of the control sample (dye without HSA) to the absorbance of each other sample.

[2] = Optical properties: excitation/emission maxima and absolute fluorescence quantum yield; assay type: physicochemical
Procedure: A dual-beam UV-VIS spectrophotometer (Lambda 40, Perkin Elmer) was used to determine the absorbance (Abs) of the compounds of the invention. Emission/excitation (Em/Ex) spectra and absolute fluorescence quantum yield (ϕ) measurements were carried out on a spectrofluorometer (FluoroLog-3 1IHR-320, Horiba Jobin Yvon) equipped with an F-3018 integrating sphere accessory. The measurements were performed using an excitation wavelength at maximum absorbance of different dyes, and the sample was excited with a 450 W Xenon Light Source. Detection was performed by photomultiplier tubes (PMT-NIR) cooled detector or by TBX-04 detector. Dye solutions were carefully prepared to have an absorbance lower than 0.1 (optical densities) to minimize re-absorption phenomena.
The compounds of the invention have been characterized in terms of their optical properties in vitro in aqueous medium (i.e., water/PBS pH 7.4) and in a clinical chemistry control serum (Seronorm, Sero SA), mimicking the chemical composition and optical properties of human serum. All dye or dye-conjugate solutions were freshly prepared. ICG and S0456 were used as commercial references.
In particular, the excitation and emission maxima and the absolute fluorescence quantum yield (Φ) of representative compounds of formula (I) and conjugates of formula (II) are shown in Table II.

[3] = Seronorm (clinical chemistry control serum)

T1 sequence (P02768 25-609): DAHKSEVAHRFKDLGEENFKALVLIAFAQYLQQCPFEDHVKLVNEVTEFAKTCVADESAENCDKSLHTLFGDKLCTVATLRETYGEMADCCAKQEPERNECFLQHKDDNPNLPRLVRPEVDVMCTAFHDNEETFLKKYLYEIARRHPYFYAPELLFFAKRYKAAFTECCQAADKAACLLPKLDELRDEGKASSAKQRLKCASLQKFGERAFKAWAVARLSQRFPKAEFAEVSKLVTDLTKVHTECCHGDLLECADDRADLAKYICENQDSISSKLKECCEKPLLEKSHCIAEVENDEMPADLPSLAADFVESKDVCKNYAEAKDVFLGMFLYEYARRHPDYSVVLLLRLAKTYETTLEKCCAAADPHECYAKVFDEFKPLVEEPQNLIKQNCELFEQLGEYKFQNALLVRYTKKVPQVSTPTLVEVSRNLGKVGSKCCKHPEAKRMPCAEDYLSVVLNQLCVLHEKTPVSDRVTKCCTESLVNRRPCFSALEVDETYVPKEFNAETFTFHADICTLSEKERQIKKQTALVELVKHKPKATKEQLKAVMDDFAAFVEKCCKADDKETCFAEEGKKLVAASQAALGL

| SMILES | HSA affinity (KA) [1] | Max Em (emission maximum) ([2]; PBS pH 7.4) [nm] | Max Ex (excitation maximum) ([2]; PBS pH 7.4) [nm] | Φ (absolute fluorescence quantum yield) ([2]; PBS pH 7.4) [%] | Φ (absolute fluorescence quantum yield) [2, 3] [%] | pKd [1] |
| --- | --- | --- | --- | --- | --- | --- |
| CC1(C)C(/C=C/C2=C(c3ccccc3)C(=C/C=C3/N(CCCCC(=O)O)c4ccc(C(=O)NCC(O)C(O)C(O)C(O)CO)cc4C3(C)C)/CCC2)=[N+](CCCCS(=O)(=O)[O-])c2ccc(C(=O)NCC(O)C(O)C(O)C(O)CO)cc21 (stereo not drawn) [Compound 22] |  | 803 | 782 | 6.1 | 9.8 | 3.92 |
| CC1(C)C(/C=C/C2=C(Oc3ccc(S(=O)(=O)O)cc3)C(=C/C=C3/N(CCCCCC(=O)O)c4ccc(C(=O)NCC(O)C(O)C(O)C(O)CO)cc4C3(C)C)/CCC2)=[N+](CCCCS(=O)(=O)[O-])c2ccc(C(=O)NCC(O)C(O)C(O)C(O)CO)cc21 (stereo not drawn) [Compound 15] |  |  |  |  |  | 4.96 |
| CC1(C)C(/C=C/C2=C(c3ccc(CCC(=O)O)cc3)C(=C/C=C3/N(CCCCS(=O)(=O)O)c4ccc(C(=O)NCC(O)C(O)C(O)C(O)CO)cc4C3(C)C)/CCC2)=[N+](CCCCS(=O)(=O)[O-])c2ccc(C(=O)NCC(O)C(O)C(O)C(O)CO)cc21 (stereo not drawn) [Compound 11] |  | 786 | 764 | 6.3 | 11.5 | 3.81 |
| CC1(C)C(/C=C/C2=C(Oc3ccccc3)C(=C/C=C3/N(CCCCS(=O)(=O)O)c4ccc(C(=O)NC5C(O)C(O)C(O)C(O)C5O)cc4C3(C)C)/CCC2)=[N+](CCCCS(=O)(=O)[O-])c2ccc(C(=O)NC3C(O)C(O)C(O)C(O)C3O)cc21 (stereo not drawn) [Compound 20] |  | 801 | 780 | 6.3 | 7.7 | 4.14 |
| CC1(C)C(/C=C/C2=C(c3ccccc3)C(=C/C=C3\N(CCCCCC(=O)NCCCCC4NC(=O)[C@@H](Cc5ccccc5)NC(=O)[C@H](CC(=O)O)NC(=O)CNC(=O)[C@H](CCCNC(=N)N)NC4=O)c4ccc(C(=O)NCC(O)C(O)C(O)C(O)CO)cc4C3(C)C)/CCC2)=[N+](CCCCS(=O)(=O)[O-])c2ccc(C(=O)NCC(O)C(O)C(O)C(O)CO)cc21 (stereo partly drawn) [Compound 3] |  | 787 | 771 | 6.4 | 8.1 |  |

Continued, values first:

| HSA affinity (KA) [1] | Max Em (emission maximum) ([2]; PBS pH 7.4) [nm] | Max Ex (excitation maximum) ([2]; PBS pH 7.4) [nm] | Φ (absolute fluorescence quantum yield) ([2]; PBS pH 7.4) [%] | Φ (absolute fluorescence quantum yield) [2, 3] [%] | pKd [1] | SMILES |
| --- | --- | --- | --- | --- | --- | --- |
| 350,000 M^−1 | 803 | 782 | 3.9 | 7.7 |  | CC1(C)C(/C=C/C2=C(Cl)C(=C/C=C3/N(CCCCS(=O)(=O)[O-])c4ccc(S(=O)(=O)[O-])cc4C3(C)C)/CCC2)=[N+](CCCCS(=O)(=O)[O-])c2ccc(S(=O)(=O)[O-])cc21.[Na+].[Na+].[Na+] [Compound S0456, reference compound] |
|  | 804 | 781 | 6.2 | 10.5 | 4.16 | CC1(C)C(/C=C/C2=C(Oc3ccccc3)C(=C/C=C3/N(CCCCS(=O)(=O)O)c4ccc(C(=O)NCC(O)CO)cc4C3(C)C)/CCC2)=[N+](CCCCS(=O)(=O)[O-])c2ccc(C(=O)NCC(O)CO)cc21 (stereo not drawn) [Compound 18] |
|  | 788 | 768 | 5.5 | 11.8 | 4.09 | CC1(C)C(/C=C/C2=C(c3ccccc3)C(=C/C=C3/N(CCCCS(=O)(=O)O)c4ccc(C(=O)NCC(O)C(O)C(O)C(O)CO)cc4C3(C)C)/CCC2)=[N+](CCCCS(=O)(=O)[O-])c2ccc(C(=O)NCC(O)C(O)C(O)C(O)CO)cc21 (stereo not drawn) [Compound 17] |
|  | 810 | 780 | 1.5 | 7.8 |  | CC1(C)C(/C=C/C=C/C=C/C=C2\N(CCCCS(=O)(=O)O)c3ccc4ccccc4c3C2(C)C)=[N+](CCCCS(=O)(=O)[O-])c2ccc3ccccc3c21 [ICG, Indocyanine green, reference compound] |

— patent US11851421B2, “Near-infrared cyanine dyes and conjugates thereof” (BRACCO IMAGING S.P.A., priority 2020, dated 2023)
